Laboratory results as given in publication PMC8632988, “Inhibition of SYK and cSrc kinases can protect bone and cartilage in preclinical models of osteoarthritis and rheumatoid arthritis” (Scientific Reports, 2021).
Several values for one entry are separate records, joined by “and”; a condition that tells them apart may be missing. Equal values may be shown once. Read-outs that look alike come from different tables or passages of the source.

Tests used:
[1] = test system: SYK-mediated signaling in human B-cell lymphoma cells; assay: Detection of SYK activity in cells by Western blot; format: cell-based; conditions: 1, 3, 10 uM
Method: Western blot was performed at A. N. Bakh Institute of Biochemistry, Russia. Human B-cell lymphoma cells obtained from Russian collection cell cultures (RCCC) were cultured in 5% CO2 humidified atmosphere at 37 °C in RPMI 1640 supplemented with 100 U mL^–1 penicillin/streptomycin and 10% heat inactivated FBS. P3H3 cells (10^6 cells in 1 ml of RPMI media with 5% FBS) were incubated with test compound or vehicle control (DMSO, 1%) for one hour at 37 °C in a 5% CO2-incubator. Then anti-IgM (1 μg/mL) was added to activate B-cell receptors and incubation continued for additional 15 min. After that the cells were washed with cooled PBS buffer and were lysed in 200 μL of ice-cold lysis buffer (62,5 mM Tris–HCl, pH 6.8, 2% w/v SDS, 10% glycerin, 50 mM DTT, 0,01% w/v BPB). Then lysates were sonicated for 20 s in ice, heated to 95–100 °C for 5 min and centrifuged for 5 min. 20 μL of obtained samples were electrophoresed on 10% SDS–polyacrylamide gel (gel blocks: 90 × 60 × 1.5 mm; current intensity: 30 mA, time: 2.5–3 h) and transferred to nitrocellulose membranes (BioRad). Western blotting was carried out according to the Amersham Pharmacia Biotech ECL Western blotting protocol. […]

[2] = Tissue distribution after single oral administration in rats; format: in vivo, rat; conditions: for Bone concentration / Joint concentration / Kidney concentration / Liver concentration / concentration at 2 h / concentration at 8 h / concentration at 24 h / Muscle concentration / Prostate concentration / Spleen concentration: 100 mg/kg; for Kp / concentration at 2 h / concentration at 8 h / concentration at 24 h / Cmax / Tmax / AUC / AUC(0-inf) / half-life: rat; for concentration at 2 h / concentration at 8 h / concentration at 24 h: po; for AUC: read-out: AUC24; for half-life: read-out: Terminal t1/2 (converted)
Method: Experiments were performed at ChemPartner, Shanghai, China and approved by Institutional Ethics Committee (IEC) of ChemPartner. Male Wistar 10–12 weeks old rats with body weights of 185–220 g and male New Zealand rabbits with body weights of 2.0–2.3 kg were purchased from Shanghai SLAC Laboratory Animal Co., Ltd. MT-SYK-03 was administered to the three groups of rats (six rats per group) via oral gavage at 10 mL/kg concentration, and in rabbits 5 mL/kg concentration. Blood samples were kept on ice and centrifuged (2000 g, 4 ℃, 5 min) within 15 min post sampling.

[3] = bone, 100 mg/kg PO, male Wistar rats, Estimated Value
[4] = joint, 100 mg/kg PO, male Wistar rats, Estimated Value
[5] = kidney, 100 mg/kg PO, male Wistar rats, Estimated Value
[6] = liver, 100 mg/kg PO, male Wistar rats, Estimated Value
[7] = muscle, 100 mg/kg PO, male Wistar rats, Estimated Value
[8] = prostate, 100 mg/kg PO, male Wistar rats, Estimated Value
[9] = spleen, 100 mg/kg PO, male Wistar rats, Estimated Value

## COc1cc(Nc2ncnc(Nc3cc4c(cn3)NC(=O)C(C)(C)O4)n2)cc(OC)c1OC [MT-SYK-03]
[1]
  Anti-IgM induced autophosphorylation of SYK and phosphorylation of CD19, BTK, ERK1/2 and JNK1/2: dose-dependently inhibited
[2]; bone, 100 mg/kg PO, male Wistar rats, 2 h, individual animals
  Bone concentration: 433 ng/mL and 576 ng/mL
[2]; bone, 100 mg/kg PO, male Wistar rats, 8 h, individual animals
  Bone concentration: 1290 ng/mL and 681 ng/mL and 153 ng/mL
[2]; bone, 100 mg/kg PO, male Wistar rats, 24 h, individual animals
  Bone concentration: 8.28 ng/mL and 19.9 ng/mL and 14.5 ng/mL
[2]; joint, 100 mg/kg PO, male Wistar rats, 2 h, individual animals
  Joint concentration: 584 ng/mL and 631 ng/mL
[2]; joint, 100 mg/kg PO, male Wistar rats, 8 h, individual animals
  Joint concentration: 1100 ng/mL and 673 ng/mL and 216 ng/mL
[2]; joint, 100 mg/kg PO, male Wistar rats, 24 h, individual animals
  Joint concentration: 12.2 ng/mL and 20.4 ng/mL and 8.49 ng/mL
[2]; kidney, 100 mg/kg PO, male Wistar rats, 2 h, individual animals
  Kidney concentration: 2880 ng/mL and 3160 ng/mL
[2]; kidney, 100 mg/kg PO, male Wistar rats, 8 h, individual animals
  Kidney concentration: 1200 ng/mL and 375 ng/mL and 260 ng/mL
[2]; kidney, 100 mg/kg PO, male Wistar rats, 24 h, individual animals
  Kidney concentration: 5.30 ng/mL and 72.0 ng/mL and 8.51 ng/mL
[2]; liver, 100 mg/kg PO, male Wistar rats, 2 h, individual animals
  Liver concentration: 4700 ng/mL and 6610 ng/mL
[2]; liver, 100 mg/kg PO, male Wistar rats, 8 h, individual animals
  Liver concentration: 1860 ng/mL and 635 ng/mL and 442 ng/mL
[2]; liver, 100 mg/kg PO, male Wistar rats, 24 h, individual animals
  Liver concentration: 7.95 ng/mL and 115 ng/mL and 12.8 ng/mL
[2]; male, Wistar, bone and cartilage tissues, rats, single oral administration, read-out: Exposure in bone and cartilage tissues relative to plasma
  Kp: 3
[2]; male, Wistar, bone, bone, 100 mg/kg PO, male Wistar rats, 2 h, individual animals, read-out: Bone concentration
  concentration at 2 h: 327 ng/mL
[2]; male, Wistar, bone, bone, 100 mg/kg PO, male Wistar rats, 2 h, mean, read-out: Bone concentration, Mean
  concentration at 2 h: 445 ng/mL
[2]; male, Wistar, bone, bone, 100 mg/kg PO, male Wistar rats, 8 h, mean, read-out: Bone concentration, Mean
  concentration at 8 h: 708 ng/mL
[2]; male, Wistar, bone, bone, 100 mg/kg PO, male Wistar rats, 24 h, mean, read-out: Bone concentration, Mean
  concentration at 24 h: 14.2 ng/mL
[2]; male, Wistar, joint, joint, 100 mg/kg PO, male Wistar rats, 2 h, individual animals, read-out: Joint concentration
  concentration at 2 h: 470 ng/mL
[2]; male, Wistar, joint, joint, 100 mg/kg PO, male Wistar rats, 2 h, mean, read-out: Joint concentration, Mean
  concentration at 2 h: 562 ng/mL
[2]; male, Wistar, joint, joint, 100 mg/kg PO, male Wistar rats, 8 h, mean, read-out: Joint concentration, Mean
  concentration at 8 h: 663 ng/mL
[2]; male, Wistar, joint, joint, 100 mg/kg PO, male Wistar rats, 24 h, mean, read-out: Joint concentration, Mean
  concentration at 24 h: 13.7 ng/mL
[2]; male, Wistar, kidney, kidney, 100 mg/kg PO, male Wistar rats, 2 h, individual animals, read-out: Kidney concentration
  concentration at 2 h: 2350 ng/mL
[2]; male, Wistar, kidney, kidney, 100 mg/kg PO, male Wistar rats, 2 h, mean, read-out: Kidney concentration, Mean
  concentration at 2 h: 2800 ng/mL
[2]; male, Wistar, kidney, kidney, 100 mg/kg PO, male Wistar rats, 8 h, mean, read-out: Kidney concentration, Mean
  concentration at 8 h: 612 ng/mL
[2]; male, Wistar, kidney, kidney, 100 mg/kg PO, male Wistar rats, 24 h, mean, read-out: Kidney concentration, Mean
  concentration at 24 h: 28.6 ng/mL
[2]; male, Wistar, liver, liver, 100 mg/kg PO, male Wistar rats, 2 h, individual animals, read-out: Liver concentration
  concentration at 2 h: 4450 ng/mL
[2]; male, Wistar, liver, liver, 100 mg/kg PO, male Wistar rats, 2 h, mean, read-out: Liver concentration, Mean
  concentration at 2 h: 5250 ng/mL
[2]; male, Wistar, liver, liver, 100 mg/kg PO, male Wistar rats, 8 h, mean, read-out: Liver concentration, Mean
  concentration at 8 h: 979 ng/mL
[2]; male, Wistar, liver, liver, 100 mg/kg PO, male Wistar rats, 24 h, mean, read-out: Liver concentration, Mean
  concentration at 24 h: 45.3 ng/mL
[2]; male, Wistar, muscle, muscle, 100 mg/kg PO, male Wistar rats, 2 h, individual animals, read-out: Muscle concentration
  concentration at 2 h: 456 ng/mL
[2]; male, Wistar, muscle, muscle, 100 mg/kg PO, male Wistar rats, 2 h, mean, read-out: Muscle concentration, Mean
  concentration at 2 h: 436 ng/mL
[2]; male, Wistar, muscle, muscle, 100 mg/kg PO, male Wistar rats, 8 h, individual animals, read-out: Muscle concentration
  concentration at 8 h: 160 ng/mL
[2]; male, Wistar, muscle, muscle, 100 mg/kg PO, male Wistar rats, 8 h, mean, read-out: Muscle concentration, Mean
  concentration at 8 h: 120 ng/mL
[2]; male, Wistar, muscle, muscle, 100 mg/kg PO, male Wistar rats, 24 h, individual animals, read-out: Muscle concentration
  concentration at 24 h: 4.68 ng/mL
[2]; male, Wistar, muscle, muscle, 100 mg/kg PO, male Wistar rats, 24 h, mean, read-out: Muscle concentration, Mean
  concentration at 24 h: 6.8 ng/mL
[2]; male, Wistar, prostate, prostate, 100 mg/kg PO, male Wistar rats, 2 h, individual animals, read-out: Prostate concentration
  concentration at 2 h: 1070 ng/mL
[2]; male, Wistar, prostate, prostate, 100 mg/kg PO, male Wistar rats, 2 h, mean, read-out: Prostate concentration, Mean
  concentration at 2 h: 1260 ng/mL
[2]; male, Wistar, prostate, prostate, 100 mg/kg PO, male Wistar rats, 8 h, mean, read-out: Prostate concentration, Mean
  concentration at 8 h: 251 ng/mL
[2]; male, Wistar, prostate, prostate, 100 mg/kg PO, male Wistar rats, 24 h, individual animals, read-out: Prostate concentration
  concentration at 24 h: 21.6 ng/mL
[2]; male, Wistar, prostate, prostate, 100 mg/kg PO, male Wistar rats, 24 h, mean, read-out: Prostate concentration, Mean
  concentration at 24 h: 21.6 ng/mL
[2]; male, Wistar, spleen, spleen, 100 mg/kg PO, male Wistar rats, 2 h, individual animals, read-out: Spleen concentration
  concentration at 2 h: 2060 ng/mL
[2]; male, Wistar, spleen, spleen, 100 mg/kg PO, male Wistar rats, 2 h, mean, read-out: Spleen concentration, Mean
  concentration at 2 h: 1910 ng/mL
[2]; male, Wistar, spleen, spleen, 100 mg/kg PO, male Wistar rats, 8 h, mean, read-out: Spleen concentration, Mean
  concentration at 8 h: 374 ng/mL
[2]; male, Wistar, spleen, spleen, 100 mg/kg PO, male Wistar rats, 24 h, individual animals, read-out: Spleen concentration
  concentration at 24 h: 30.3 ng/mL
[2]; male, Wistar, spleen, spleen, 100 mg/kg PO, male Wistar rats, 24 h, mean, read-out: Spleen concentration, Mean
  concentration at 24 h: 30.3 ng/mL
[2]; muscle, 100 mg/kg PO, male Wistar rats, 2 h, individual animals
  Muscle concentration: 435 ng/mL and 416 ng/mL
[2]; muscle, 100 mg/kg PO, male Wistar rats, 8 h, individual animals
  Muscle concentration: 107 ng/mL and 93.2 ng/mL
[2]; muscle, 100 mg/kg PO, male Wistar rats, 24 h, individual animals
  Muscle concentration: 8.92 ng/mL and BQL
[2]; prostate, 100 mg/kg PO, male Wistar rats, 2 h, individual animals
  Prostate concentration: 1200 ng/mL and 1500 ng/mL
[2]; prostate, 100 mg/kg PO, male Wistar rats, 8 h, individual animals
  Prostate concentration: 500 ng/mL and 154 ng/mL and 98.0 ng/mL
[2]; prostate, 100 mg/kg PO, male Wistar rats, 24 h, individual animals
  Prostate concentration: BQL
[2]; [3]
  Cmax: 708 ng/mL
  Tmax: 8 h
  AUC: 9680 ng·h/mL
[2]; bone, 100 mg/kg PO, male Wistar rats, Estimated Value, read-out: AUC24/AUC24 (plasma)
  Kp: 2.5
[2]; [4]
  Cmax: 663 ng/mL
  Tmax: 8 h
  AUC: 9650 ng·h/mL
[2]; joint, 100 mg/kg PO, male Wistar rats, Estimated Value, read-out: AUC24/AUC24 (plasma)
  Kp: 2.49
[2]; [5]
  AUC(0-inf): 18300 ng·h/mL
  Cmax: 2800 ng/mL
  Tmax: 2 h
  AUC: 18100 ng·h/mL
  half-life: 3.38 h
[2]; kidney, 100 mg/kg PO, male Wistar rats, Estimated Value, read-out: AUC24/AUC24 (plasma)
  Kp: 4.68
[2]; [6]
  AUC(0-inf): 32400 ng·h/mL
  Cmax: 5250 ng/mL
  Tmax: 2 h
  AUC: 32100 ng·h/mL
  half-life: 3.28 h
[2]; liver, 100 mg/kg PO, male Wistar rats, Estimated Value, read-out: AUC24/AUC24 (plasma)
  Kp: 8.3
[2]; [7]
  AUC(0-inf): 3150 ng·h/mL
  Cmax: 436 ng/mL
  Tmax: 2 h
  AUC: 3120 ng·h/mL
  half-life: 3.7 h
[2]; muscle, 100 mg/kg PO, male Wistar rats, Estimated Value, read-out: AUC24/AUC24 (plasma)
  Kp: 0.805
[2]; [8]
  AUC(0-inf): 8080 ng·h/mL
  Cmax: 1260 ng/mL
  Tmax: 2 h
  AUC: 7960 ng·h/mL
  half-life: 3.89 h
[2]; prostate, 100 mg/kg PO, male Wistar rats, Estimated Value, read-out: AUC24/AUC24 (plasma)
  Kp: 2.05
[2]; [9]
  AUC(0-inf): 12200 ng·h/mL
  Cmax: 1910 ng/mL
  Tmax: 2 h
  AUC: 12000 ng·h/mL
  half-life: 3.81 h
[2]; spleen, 100 mg/kg PO, male Wistar rats, Estimated Value, read-out: AUC24/AUC24 (plasma)
  Kp: 3.1
[2]; spleen, 100 mg/kg PO, male Wistar rats, 2 h, individual animals
  Spleen concentration: 1420 ng/mL and 2260 ng/mL
[2]; spleen, 100 mg/kg PO, male Wistar rats, 8 h, individual animals
  Spleen concentration: 726 ng/mL and 129 ng/mL and 268 ng/mL
[2]; spleen, 100 mg/kg PO, male Wistar rats, 24 h, individual animals
  Spleen concentration: BQL
